Laboratory results as given in patent publication US6346529B1, “Antiviral therapy using thiazine dyes” (Oklahoma Medical Research Foundation, priority 1988, dated 2002).

Tests used:
[1] = PBM cell proliferation (cytotoxicity) assay; assay type: cell-based; settings: human
Description: (§1) PBM and CEM Cells Proliferation Assay: The drugs were evaluated for their potential toxic effects on uninfected PHA-stimulated human PBM cells and also in CEM cells. The cells were cultured with and without drug for 6 days at which time aliquots were counted for cell viability as described above. Median-Effect Method: EC50 and IC50 values were obtained by analysis of the data using the median-effect equation (Chou, T., et al., “Quantitative Analysis of Dose-Effect Relationships: The Combined Effects of Multiple Drugs or Enzyme Inhibitors,” Adv. Enz. Regul. 22, 27-55 (1984).

[2] = CEM cell proliferation (cytotoxicity) assay; assay type: cell-based; settings: human
Description: as §1

[3] = target: T1, HIV-1 reverse transcriptase (RT) (Human immunodeficiency virus type 1 group M subtype B, UniProt P03367); test: HIV-1 reverse transcriptase enzyme assay; assay type: biochemical
T1 construct: HIV reverse transcriptase (RT); endogenous in cells; host or cells: HIV-1-infected PHA-stimulated human PBM cells
Text: Enzyme Assays: The preparation of the enzyme and the assay conditions used, were recently described by Schinazi, et al., Antimicrob. Agents Chemother. 33, 115-117 (1989). HIV-1 RT and cellular DNA polymerase alpha were isolated from infected and uninfected PHA-stimulated human PBM cells according to traditional methods (Eriksson, B., et al., Antimicrob. Agents Chemother. 31, 600-604, (1987); Furman, et al., Proc. Natl. Acad. Sci. USA 83, 8333-8337, (1986); Abrell, et al., J. Virol. 12, 431-439, (1973).
Assays. Reaction mixtures (100 μl) contained:
The reactions were started by the addition of 10 μl of purified enzyme, incubated at 37° C. for the indicated periods of time and processed as described in Eriksson, et al., Antimicrob. Agents Chemother. 31, 600-604 (1987).
Median-Effect Method: EC50 and IC50 values were obtained by analysis of the data using the median-effect equation (Chou, T., et al., “Quantitative Analysis of Dose-Effect Relationships: The Combined Effects of Multiple Drugs or Enzyme Inhibitors,” Adv. Enz. Regul. 22, 27-55 (1984).
The effect of methylene blue on two DNA polymerizing enzymes, HIV reverse transcriptase (RT) and calf thymus DNA polymerase alpha (CT α pol), was also studied.

Compound | IC50 at 6 days [1] [µM] | IC50 at 6 days [2] [µM] | IC50 ([3]; Dark) [µM] | IC50 ([3]; Light) [µM]
Nc1nc2c(ncn2COCCO)c(=O)[nH]1 [ACV, Acyclovir] | > 100 | > 100 | – | –
CN(C)c1ccc2nc3ccc(N(C)C)cc3[s+]c2c1.[Cl-] [MB, 3,7-Bis(dimethylamino)phenothiazin-5-ium chloride] | – | – | 10 | 9.2
